Measured values published in US20120003270A1, “6-SUBSTITUTED ISOFLAVONOID COMPOUNDS AND USES THEREOF” (priority 2008, published 2012).

Assays:
[1] = test system: RAW 264.7; assay: Toxicity in RAW 264.7; format: cell-based, mouse
[2] = Interaction with Cu(II) (UV/Vis absorption spectra); format: physicochemical; conditions: 25 μM compound + 25 μM CuSO4, 1:1 molar ratio, pH 7.2
Experimental: The non-specific binding of compound (1) to Cu^++ was also examined in duplicate on different days. A stock solution of test compounds was prepared in DMSO at a concentration of 5 mM. The UV/Vis absorption spectra of was then determined between 200 and 800 nm after dilution of test compounds to 25 μM in phosphate buffer (10 mM, pH 7.2, chelex treated). Interactions of the compounds with Cu(II) were determined by scanning a second overlaying absorption spectrum over 200 to 800 nm, in which 25 μM CuSO4 solution was added to a fresh 25 μM solution of test compounds and mixed for 20 seconds.

[3] = test system: aortic ring; assay: Rat aortic ring assay (contraction to noradrenaline); conditions: 1 μg/ml, p=0.045, read-out: Inhibition of the contractile response (logEC50) to noradrenaline compared with vehicle alone
Experimental: Male Sprague-Dawley rats (250±50 g) were euthanased with 80% CO2 and 20% O2. The thoracic aorta was excised and quickly mounted in organ-baths as described (Chin-Dusting et al. 2001). Full concentration-contractile curves were obtained to noradrenaline (0.1 nM-10 mM) with and without test compounds delivered at a concentration of 1 μg/ml. Experiments were repeated in n=5 different rings from 5 different animals. Only one compound at any one concentration was tested on any one ring from any one animal. Sigmoidal dose response curves were fitted for the data and the logEC50 calculated (Prism 4, GraphPad Software). The difference in these values between the presence and absence of test compound was calculated using a two-tailed paired t test. The effects of β-oestrodiol and vehicle alone were examined as a positive and negative control respectively.

[4] = test system: adjuvant-induced arthritis; assay: Rat adjuvant-induced arthritis model; format: in vivo
Experimental: Male Dark Agouti (DA) strain (DA.CD45.1) rats were fed with either compound (1)-treated feed or placebo-treated feed for seven days prior to the injection of Complete Freund's adjuvant (0.1 ml) into the base of the tail. The treated feeds were continued throughout the experiment. Arthritis, which became evident at Day 8 was subjectively scored each day by an operator blinded to the identity of treatments and using a scoring system as follows: • 0 (no evidence of arthritis); • 1 (1 or 2 red, swollen joints but no other swelling); • 2 (carpus or tarsus swollen or more than 2 small joints swollen); • 3 (some red swollen joints and carpus or tarsus swollen, but not global swelling); • 4 (severe global swelling of the entire paw). Therefore, the disease score for individual rats ranged between 0 and 16. Rats (n=8 per group) were killed on Day 12. Data were analysed using a two way ANOVA (Prism 4 for Windows, GraphPad Software Inc).

[5] = test system: THP-1 cells; assay: Cytotoxicity in the THP-1 NFκB assay; format: cell-based, human; conditions: at active concentrations

SMILES | Effect on the viability of RAW 264.7 cells [1] | IC50 ([1]; Mus musculus, RAW264.7) [µM] | Interaction with Cu^2+ [2] | inhibition at 1 µg/mL [3] [%] | Joint score (mean ± SD) ([4]; Day 7, treated feed, score 0-16) | Joint score (mean ± SD) ([4]; Day 8, placebo 0.38 ± 0.52) | Joint score (mean ± SD) ([4]; Day 9, placebo 4.75 ± 1.28) | Joint score (mean ± SD) ([4]; Day 10, placebo 7.75 ± 1.39) | Joint score (mean ± SD) ([4]; Day 11, placebo 11.75 ± 1.04) | Joint score (mean ± SD) ([4]; Day 12, placebo 14.13 ± 1.46) | Arthritis score compared with placebo feed (in words) ([4]; two way ANOVA) | Cytotoxicity [5] | melting point
CN(C)Cc1cc2c(cc1O)OCC(c1ccc(O)cc1)=C2 [Compound (1)] | little effect on the viability | 53.9 ± 1.2 | did not interact with Cu^2+ | 23 | 0 | 0.5 ± 0.53 | 3.25 ± 1.58 | 6.25 ± 1.49 | 9.25 ± 1.28 | 12.75 ± 2.92 | statistically significant (p=0.008) reduction in arthritis score | absence of cytotoxicity | 
O=C(O)C1CCCN1Cc1cc2c(cc1O)OCC(c1ccc(O)cc1)=C2 (stereo not shown) [Compound (3)] |  |  |  |  |  |  |  |  |  |  |  |  | 240 °C (dec.)
